Data taken from US10844052B2, “LLS compounds for treatment of cancer” (THE REGENTS OF THE UNIVERSITY OF CALIFORNIA, priority 2016, dated 2020).

Assays:
[1] = test system: 22RV1 prostate cancer cells; experiment: Cell viability of prostate cancer 22RV1 cells after 72 hours treatment; format: cell-based; details: Homo sapiens
[2] = test system: PC3 prostate cancer cells; experiment: Cell viability of prostate cancer PC3 cells after 72 hours treatment; format: cell-based; details: Homo sapiens; for viability at 2.5 µM: PC-3, 2.5 μM; for viability at 5 µM: PC-3, 5 μM; for viability at 10 µM: PC-3, 10 μM; for viability at 20 µM: PC-3, 20 μM
Experimental: Effects of compounds LLS42-LLS80 on the viability of PC3 prostate cancer cells after 72 hours of treatment are shown in Table 2 below: […]

Row | Structure (SMILES) | viability at 2.5 µM [1] [%] | viability at 5 µM [1] [%] | viability at 10 µM [1] [%] | viability at 2.5 µM [2] [%] | viability at 5 µM [2] [%] | viability at 10 µM [2] [%] | viability at 20 µM [2] [%]
1 | NC(=O)CC(NCC1CCCCC1)c1ccc2c(c1)nc(-c1cccc(OCCN3CCOCC3)c1)n2Cc1ccc(OC(F)(F)F)cc1 (stereo not shown) [LLS91, 3-((cyclohexylmethyl)amino)-3-(2-(3-(2-morpholinoethoxy)phenyl)-1-(4-(trifluoromethoxy)benzyl)-1H-benzo[d]imidazol-5-yl)propanamide] | 33 | 7 | 0 | – | – | – | –
2 | NC(=O)CC(NCC1CCCCC1)c1ccc2c(c1)nc(-c1ccc(N(CCO)CCO)cc1)n2Cc1ccc(Cl)c(Cl)c1 (stereo not shown) [LLS101, 3-(2-(4-(bis(2-hydroxyethyl)amino)phenyl)-1-(3,4-dichlorobenzyl)-1H-benzo[d]imidazol-5-yl)-3-((cyclohexylmethyl)amino)propanamide] | 20 | 1 | 0 | – | – | – | –
3 | NC(=O)CC(NCC1CCCCC1)c1ccc2c(c1)nc(-c1ccncc1)n2Cc1ccc(OC(F)(F)F)cc1 (stereo not shown) [LLS88, 3-((cyclohexylmethyl)amino)-3-(2-(pyridin-4-yl)-1-(4-(trifluoromethoxy)benzyl)-1H-benzo[d]imidazol-5-yl)propanamide] | 75 | 4 | 0 | – | – | – | –
4 | NC(=O)CC(NCc1ccc(F)c(F)c1)c1ccc2c(c1)nc(-c1ccc(N(CCO)CCO)cc1)n2Cc1ccc(Cl)c(Cl)c1 (stereo not shown) [LLS83, 3-(2-(4-(bis(2-hydroxyethyl)amino)phenyl)-1-(3,4-dichlorobenzyl)-1H-benzo[d]imidazol-5-yl)-3-((3,4-difluorobenzyl)amino)propanamide] | 20 | 1 | 0 | – | – | – | –
5 | NC(=O)CC(NCc1ccc(Cl)c(Cl)c1)c1ccc2c(c1)nc(-c1ccc(N(CCO)CCO)cc1)n2Cc1ccc(Cl)c(C(F)(F)F)c1 (stereo not shown) [LLS97, 3-(2-(4-(bis(2-hydroxyethyl)amino)phenyl)-1-(4-chloro-3-(trifluoromethyl)benzyl)-1H-benzo[d]imidazol-5-yl)-3-((3,4-dichlorobenzyl)amino)propanamide] | 23 | 0 | 0 | – | – | – | –
6 | NC(=O)CC(NCc1ccc(Cl)c(Cl)c1)c1ccc2c(c1)nc(-c1ccc(N(CCO)CCO)cc1)n2Cc1ccc2c(c1)OCO2 (stereo not shown) [LLS106, 3-(1-(benzo[d][1,3]dioxol-5-ylmethyl)-2-(4-(bis(2-hydroxyethyl)amino)phenyl)-1H-benzo[d]imidazol-5-yl)-3-((3,4-dichlorobenzyl)amino)propanamide] | 30 | 2 | 0 | – | – | – | –
7 | CN(C)CCCOc1ccc(-c2nc3cc(C(CC(N)=O)NCC4CCCCC4)ccc3n2Cc2ccc(Br)cc2)cc1 (stereo not shown) [LLS95, 3-(1-(4-bromobenzyl)-2-(4-(3-(dimethylamino)propoxy)phenyl)-1H-benzo[d]imidazol-5-yl)-3-((cyclohexylmethyl)amino)propanamide] | 22 | 1 | 0 | – | – | – | –
8 | NC(=O)CC(NCC1CCCCC1)c1ccc2c(c1)nc(-c1ccc(N3CCOCC3)cc1)n2Cc1ccc(C(F)(F)F)c(F)c1 (stereo not shown) [LLS96, 3-((cyclohexylmethyl)amino)-3-(1-(3-fluoro-4-(trifluoromethyl)benzyl)-2-(4-morpholinophenyl)-1H-benzo[d]imidazol-5-yl)propanamide] | 45 | 0 | 0 | – | – | – | –
9 | NC(=O)CC(NCC1CCCCC1)c1ccc2c(c1)nc(-c1ccc(N3CCOCC3)cc1)n2Cc1cccc2ccccc12 (stereo not shown) [LLS103, 3-((cyclohexylmethyl)amino)-3-(2-(4-morpholinophenyl)-1-(naphthalen-1-ylmethyl)-1H-benzo[d]imidazol-5-yl)propanamide] | 1 | 0 | 0 | – | – | – | –
10 | NC(=O)CC(NCc1ccc(Cl)c(Cl)c1)c1ccc2c(c1)nc(-c1ccc(N(CCO)CCO)cc1)n2Cc1ccc(C(F)(F)F)cc1 (stereo not shown) [LLS92, 3-(2-(4-(bis(2-hydroxyethyl)amino)phenyl)-1-(4-(trifluoromethyl)benzyl)-1H-benzo[d]imidazol-5-yl)-3-((3,4-dichlorobenzyl)amino)propanamide] | 74 | 15 | 1 | – | – | – | –
11 | CN(C)CCCOc1ccc(-c2nc3cc(C(CC(N)=O)NCC4CCCCC4)ccc3n2Cc2ccc(OC(F)(F)F)cc2)cc1 (stereo not shown) [LLS89, 3-((cyclohexylmethyl)amino)-3-(2-(4-(3-(dimethylamino)propoxy)phenyl)-1-(4-(trifluoromethoxy)benzyl)-1H-benzo[d]imidazol-5-yl)propanamide] | 1 | 0 | 0 | – | – | – | –
12 | NC(=O)CC(NCc1ccc(Cl)c(Cl)c1)c1ccc2c(c1)nc(-c1ccc(N(CCO)CCO)cc1)n2CC1CCCCC1 (stereo not shown) [LLS104, 3-(2-(4-(bis(2-hydroxyethyl)amino)phenyl)-1-(cyclohexylmethyl)-1H-benzo[d]imidazol-5-yl)-3-((3,4-dichlorobenzyl)amino)propanamide] | 82 | 31 | 1 | – | – | – | –
13 | CN1CCN(c2ccc(-c3nc4cc(C(CC(N)=O)NCC5CCCCC5)ccc4n3Cc3ccc(OC(F)(F)F)cc3)cc2)CC1 (stereo not shown) [LLS90, 3-((cyclohexylmethyl)amino)-3-(2-(4-(4-methylpiperazin-1-yl)phenyl)-1-(4-(trifluoromethoxy)benzyl)-1H-benzo[d]imidazol-5-yl)propanamide] | 1 | 0 | 0 | – | – | – | –
14 | NC(=O)CC(NCc1ccc(Cl)c(Cl)c1)c1ccc2c(c1)nc(-c1ccc(N(CCO)CCO)cc1)n2CCc1ccccn1 (stereo not shown) [LLS108, 3-(2-(4-(bis(2-hydroxyethyl)amino)phenyl)-1-(2-(pyridin-2-yl)ethyl)-1H-benzo[d]imidazol-5-yl)-3-((3,4-dichlorobenzyl)amino)propanamide] | 89 | 100 | 101 | – | – | – | –
15 | NC(=O)CC(NCC1CCCCC1)c1ccc2c(c1)nc(-c1ccc(N3CCOCC3)cc1)n2Cc1ccc(Cl)c(C(F)(F)F)c1 (stereo not shown) [LLS98, 3-(1-(4-chloro-3-(trifluoromethyl)benzyl)-2-(4-morpholinophenyl)-1H-benzo[d]imidazol-5-yl)-3-((cyclohexylmethyl)amino)propanamide] | 40 | 0 | 0 | – | – | – | –
16 | CC(=O)OCCN(CCOC(C)=O)c1ccc(-c2nc3cc(C(CC(N)=O)NCc4ccc(-c5ccncc5)cc4)ccc3n2CCCn2ccnc2)cc1 (stereo not shown) [LLS58Ac, ((4-(1-(3-(1H-imidazol-1-yl)propyl)-5-(3-amino-3-oxo-1-((4-(pyridin-4-yl)benzyl)amino)propyl)-1H-benzo[d]imidazol-2-yl)phenyl)azanediyl)bis(ethane-2,1-diyl) Diacetate] | – | – | – | 100 | 98 | 91 | 83
17 | NC(=O)CC(NCc1ccc(-c2cncnc2)cc1)c1ccc2c(c1)nc(-c1ccc(N(CCO)CCO)cc1)n2Cc1ccc(OC(F)(F)F)cc1 (stereo not shown) [LLS51, 3-(2-(4-(bis(2-hydroxyethyl)amino)phenyl)-1-(4-(trifluoromethoxy)benzyl)-1H-benzo[d]imidazol-5-yl)-3-((4-(pyrimidin-5-yl)benzyl)amino)propanamide] | – | – | – | 83 | 79 | 99 | 105
18 | NC(=O)CC(NCC1CCCCC1)c1ccc2c(c1)nc(-c1ccc(N(CCO)CCO)cc1)n2Cc1ccc(C(F)(F)F)cc1 (stereo not shown) [LLS71, 3-(2-(4-(bis(2-hydroxyethyl)amino)phenyl)-1-(4-(trifluoromethyl)benzyl)-1H-benzo[d]imidazol-5-yl)-3-((cyclohexylmethyl)amino)propanamide] | – | – | – | 91 | 83 | 59 | 3
19 | NC(=O)CC(NCC1CCCCC1)c1ccc2c(c1)nc(-c1ccc(N(CCO)CCO)cc1)n2Cc1ccc(OC(F)(F)F)cc1 (stereo not shown) [LLS42, 3-(2-(4-(bis(2-hydroxyethyl)amino)phenyl)-1-(4-(trifluoromethoxy)benzyl)-1H-benzo[d]imidazol-5-yl)-3-((cyclohexylmethyl)amino)propanamide] | – | – | – | 95 | 92 | 49 | 0
20 | CC(=O)OCCN(CCO)c1ccc(-c2nc3cc(C(CC(N)=O)NCc4ccc(-c5ccncc5)cc4)ccc3n2CCCn2ccnc2)cc1 (stereo not shown) [LLS67, 2-((4-(1-(3-(1H-imidazol-1-yl)propyl)-5-(3-amino-3-oxo-1-((4-(pyridin-4-yl)benzyl)amino)propyl)-1H-benzo[d]imidazol-2-yl)phenyl)(2-hydroxyethyl)amino)ethyl Acetate] | – | – | – | 93 | 94 | 99 | 93
21 | NC(=O)CC(NCc1ccc2[nH]ncc2c1)c1ccc2c(c1)nc(-c1ccc(N(CCO)CCO)cc1)n2Cc1ccc(OC(F)(F)F)cc1 (stereo not shown) [LLS55, 3-(((1H-indazol-5-yl)methyl)amino)-3-(2-(4-(bis(2-hydroxyethyl)amino)phenyl)-1-(4-(trifluoromethoxy)benzyl)-1H-benzo[d]imidazol-5-yl)propanamide] | – | – | – | 91 | 100 | 102 | 92
22 | COc1cc(CNC(CC(N)=O)c2ccc3c(c2)nc(-c2ccc(N(CCOC(C)=O)CCOC(C)=O)cc2)n3C(C)C)cc(Br)c1OC (stereo not shown) [LLS43Ac, ((4-(5-(3-amino-1-((3-bromo-4,5-dimethoxybenzyl)amino)-3-oxopropyl)-1-isopropyl-1H-benzo[d]imidazol-2-yl)phenyl)azanediyl)bis(ethane-2,1-diyl) Diacetate] | – | – | – | 97 | 102 | 103 | 97
